Assay results: patent US9682928B2 (NeuroPro Therapeutics, Inc., priority 2009, dated 2017)
Several values for one entry are separate records, joined by “and”; a condition that tells them apart may be missing. Equal entries are not always repeated. Entries after “also recorded” stand apart in the source; their conditions may differ.

How the values were obtained:
[1] = tested on: rats; test: Contextual fear conditioning in rats; format: in vivo, rat; settings: I.V.; furosemide 100 mg/kg, bumetanide 50 mg/kg
Procedure: Contextual fear conditioning involves pairing an aversive event, in this case moderate foot shock, with a distinctive environment. The strength of the fear memory is assessed using freezing, a species-typical defensive reaction in rats, marked by complete immobility, except for breathing. […] However, if they are allowed to explore the distinctive environment sometime before the immediate shock, they show intense anxiety and fear when placed back into the same environment. By procedurally dividing contextual fear conditioning into two phases, the effects of treatments on memory for the context (specifically a hippocampus based process) from learning the association between context and shock or experiencing the aversiveness of the shock (which depend upon emotional response circuitry including amygdala) were separately studied. […] The experiment employed 24 rats. […] Each rat was again placed into the same environment for 8 min during which time freezing was measured, as an index of Pavlovian conditioned fear. […] Measurement of freezing was accomplished through an overhead video camera connected to the microcomputer and was automatically scored using a specialty piece of software, FreezeFrame (OER Inc., Reston, Va.) Total freezing time was analyzed in a one-way analysis of variance (ANOVA) test, with drug dose as the […] factor.

[2] = target: T1, δ-containing GABAA receptors (Homo sapiens, UniProt O14764); test: Whole-cell patch clamp, transfected HEK-293T cells; format: cell-based, rat or human; settings: 10 μM NTP-2014
T1 construct: expressed in transfected cells; host or cells: HEK-293T, transient transfection
Procedure: (§1) The addition of GABA to […] activates the recombinant expressed GABAA receptors, creating an ion movement through the ion channel in the GABAA receptor. The electrical current generated by the movement of chloride ions into the cells can be quantified.
(§2) HEK-293T cells were transiently transfected with rat or human GABAA receptor subunits. Whole-cell patch clamp recording was performed at −50 mV unless otherwise indicated. Test compounds was diluted from a freshly made stock in DMSO, GABA was prepared from a frozen stock. For each experiment GABA or GABA+a test compound was applied for 5 seconds, and the electrical current generated by the movement of chloride ions into the cells was measured and recorded as a trace of current versus time.

[3] = tested on: GABAA-IPSCs, hippocampal slices (CA1 pyramidal cell layer); test: In vitro hippocampal slice recordings of miniature and spontaneous IPSCs; format: cell-based; settings: two experiments
Procedure: Ion flux in neuronal cells was measured using standard techniques. Kandel and Schwartz Principles of Neural Science 2nd Edition (1985), see, e.g., pages 128-131. Recording was performed in vitro in hippocampal slices (CA1 pyramidal cell layer). For recording GABAA-IPSCs, glutamatergic and GABAB transmission was blocked by adding DNOX (50 μM), AP-5 (50 μM), and SCH50911 ([…]) into the medium. The intracellular solution comprised CsCl and OX314.

[4] = Tolerability after oral administration; format: in vivo
[5] = target: T2, α6β3γ2 GABAA receptor isoform (Homo sapiens, UniProt P18507+P28472+Q16445); test: Whole-cell patch clamp, transfected HEK-293T cells; format: cell-based, rat or human
T2 construct: expressed in transfected cells; host or cells: HEK-293T, transient transfection
Procedure: as §1, §2
(§3) Compounds described herein (e.g., NTP-2014) were tested at high and low GABA concentrations against multiple GABAA receptor isoforms (e.g., α1β3γ2, α2β3 γ2, α3β3γ2, α3β3γ2, α4β3γ2, α5β3γ2, α6β3γ2). […] NTP-2014 inhibits the currents in the parasynaptic α4 GABAA receptor isoform in GABAergic interneurons. […]

[6] = target: T3, α3β3γ2 GABAA receptor isoform (Homo sapiens, UniProt P18507+P28472+P34903); test: Whole-cell patch clamp, transfected HEK-293T cells; format: cell-based, rat or human; settings: 10 μM NTP-2014; 1 μM and 100 μM GABA
T3 construct: expressed in transfected cells; host or cells: HEK-293T, transient transfection
Procedure: as §1, §2, §3

[7] = target: T4, α5β3γ2 GABAA receptor isoform (Homo sapiens, UniProt P18507+P28472+P31644); test: Whole-cell patch clamp, transfected HEK-293T cells; format: cell-based, rat or human; settings: 10 μM NTP-2014; 1 μM and 100 μM GABA
T4 construct: expressed in transfected cells; host or cells: HEK-293T, transient transfection
Procedure: as §1, §2, §3

[8] = target: T5, α1β3γ2 GABAA receptor isoform (Homo sapiens, UniProt P14867+P18507+P28472); test: Whole-cell patch clamp, transfected HEK-293T cells; format: cell-based, rat or human; settings: 10 μM NTP-2014
T5 construct: expressed in transfected cells; host or cells: HEK-293T, transient transfection
Procedure: as §1, §2, §3

[9] = target: T6, α2β3γ2 GABAA receptor isoform (Homo sapiens, UniProt P18507+P28472+P47869); test: Whole-cell patch clamp, transfected HEK-293T cells; format: cell-based, rat or human; settings: 10 μM NTP-2014; 1 μM and 100 μM GABA
T6 construct: expressed in transfected cells; host or cells: HEK-293T, transient transfection
Procedure: as §1, §2, §3

[10] = Brain levels in rat following IP administration; format: in vivo; settings: PBx pretreated; for Concentration of NTP-2024 in rat brain: NTP-2024 100 mg/kg IP; for Concentration of NTP-2000 (bumetanide) in rat brain: after NTP-2024 100 mg/kg IP

T2 sequence (Q16445 20-453): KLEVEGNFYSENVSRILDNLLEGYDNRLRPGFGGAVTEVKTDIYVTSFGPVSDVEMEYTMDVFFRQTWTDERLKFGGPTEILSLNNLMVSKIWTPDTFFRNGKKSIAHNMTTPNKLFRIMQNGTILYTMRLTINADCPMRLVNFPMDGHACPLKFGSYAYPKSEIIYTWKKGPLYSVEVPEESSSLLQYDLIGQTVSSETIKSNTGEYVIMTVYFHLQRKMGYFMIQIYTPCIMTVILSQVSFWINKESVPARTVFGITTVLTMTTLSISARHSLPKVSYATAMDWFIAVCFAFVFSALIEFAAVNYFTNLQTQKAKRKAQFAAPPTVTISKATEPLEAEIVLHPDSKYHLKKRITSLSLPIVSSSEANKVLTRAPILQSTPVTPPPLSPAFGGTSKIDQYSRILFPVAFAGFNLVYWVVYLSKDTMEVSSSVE
T2 sequence (P28472 26-473): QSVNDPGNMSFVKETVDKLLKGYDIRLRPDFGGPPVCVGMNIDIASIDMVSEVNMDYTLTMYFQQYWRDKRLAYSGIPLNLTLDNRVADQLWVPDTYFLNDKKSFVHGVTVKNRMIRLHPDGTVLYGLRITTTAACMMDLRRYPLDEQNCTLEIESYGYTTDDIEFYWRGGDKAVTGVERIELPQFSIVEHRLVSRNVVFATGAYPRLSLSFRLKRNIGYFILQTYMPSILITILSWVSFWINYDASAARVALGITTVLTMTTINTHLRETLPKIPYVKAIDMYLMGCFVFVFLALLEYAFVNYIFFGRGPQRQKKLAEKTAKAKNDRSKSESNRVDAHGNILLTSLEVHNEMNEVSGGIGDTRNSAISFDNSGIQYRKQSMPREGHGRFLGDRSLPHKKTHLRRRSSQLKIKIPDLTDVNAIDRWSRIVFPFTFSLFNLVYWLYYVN
T2 sequence (P18507 40-475): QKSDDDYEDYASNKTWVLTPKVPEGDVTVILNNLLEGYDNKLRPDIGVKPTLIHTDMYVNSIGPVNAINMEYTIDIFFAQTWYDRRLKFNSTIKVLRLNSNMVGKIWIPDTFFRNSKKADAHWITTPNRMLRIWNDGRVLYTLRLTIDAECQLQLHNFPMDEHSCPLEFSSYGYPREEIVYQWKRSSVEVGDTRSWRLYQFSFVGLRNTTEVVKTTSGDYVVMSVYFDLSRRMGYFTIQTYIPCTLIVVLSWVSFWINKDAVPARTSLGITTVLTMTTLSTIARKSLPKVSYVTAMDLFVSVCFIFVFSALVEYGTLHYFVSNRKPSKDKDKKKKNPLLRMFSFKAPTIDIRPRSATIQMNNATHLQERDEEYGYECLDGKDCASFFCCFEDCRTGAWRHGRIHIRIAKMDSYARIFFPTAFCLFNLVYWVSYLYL
T6 sequence (P47869 29-451): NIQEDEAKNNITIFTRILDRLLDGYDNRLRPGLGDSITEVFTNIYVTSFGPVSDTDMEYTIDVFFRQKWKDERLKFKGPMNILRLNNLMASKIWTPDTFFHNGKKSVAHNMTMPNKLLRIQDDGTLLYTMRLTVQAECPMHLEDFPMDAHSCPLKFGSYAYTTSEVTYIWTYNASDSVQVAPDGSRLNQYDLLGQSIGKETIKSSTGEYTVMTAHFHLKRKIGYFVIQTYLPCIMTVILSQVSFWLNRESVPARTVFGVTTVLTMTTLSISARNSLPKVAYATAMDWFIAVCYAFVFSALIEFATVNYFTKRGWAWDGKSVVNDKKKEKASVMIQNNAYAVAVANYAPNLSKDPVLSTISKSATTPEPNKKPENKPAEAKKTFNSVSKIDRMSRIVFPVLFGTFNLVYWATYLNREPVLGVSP
T6 sequence (P28472 26-473): as the sequence (P28472 26-473) above
T6 sequence (P18507 40-475): as the sequence (P18507 40-475) above
T3 sequence (P34903 29-492): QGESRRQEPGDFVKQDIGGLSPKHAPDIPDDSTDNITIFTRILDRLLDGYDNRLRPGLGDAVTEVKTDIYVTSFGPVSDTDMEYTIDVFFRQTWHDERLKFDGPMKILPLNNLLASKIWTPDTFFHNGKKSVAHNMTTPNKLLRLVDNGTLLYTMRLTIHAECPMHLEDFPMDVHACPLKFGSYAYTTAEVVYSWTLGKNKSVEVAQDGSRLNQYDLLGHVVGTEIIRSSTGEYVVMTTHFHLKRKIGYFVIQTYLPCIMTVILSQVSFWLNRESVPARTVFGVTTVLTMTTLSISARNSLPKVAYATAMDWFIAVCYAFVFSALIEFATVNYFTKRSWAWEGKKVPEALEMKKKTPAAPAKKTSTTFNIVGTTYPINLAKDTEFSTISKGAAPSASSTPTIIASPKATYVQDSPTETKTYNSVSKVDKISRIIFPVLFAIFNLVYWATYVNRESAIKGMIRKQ
T3 sequence (P28472 26-473): as the sequence (P28472 26-473) above
T3 sequence (P18507 40-475): as the sequence (P18507 40-475) above
T4 sequence (P31644 32-462): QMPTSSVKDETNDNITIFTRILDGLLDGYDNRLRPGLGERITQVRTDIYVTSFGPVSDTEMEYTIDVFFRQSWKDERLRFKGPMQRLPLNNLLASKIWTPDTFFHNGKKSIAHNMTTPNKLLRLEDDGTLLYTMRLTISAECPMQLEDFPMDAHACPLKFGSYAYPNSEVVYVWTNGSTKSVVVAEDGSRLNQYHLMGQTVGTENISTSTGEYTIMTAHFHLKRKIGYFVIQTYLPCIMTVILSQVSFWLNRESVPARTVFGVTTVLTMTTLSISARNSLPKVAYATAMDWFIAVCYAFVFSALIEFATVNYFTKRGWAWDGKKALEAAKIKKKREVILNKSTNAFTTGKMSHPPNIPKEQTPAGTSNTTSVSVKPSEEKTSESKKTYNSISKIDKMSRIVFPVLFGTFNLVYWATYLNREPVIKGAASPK
T4 sequence (P28472 26-473): as the sequence (P28472 26-473) above
T4 sequence (P18507 40-475): as the sequence (P18507 40-475) above
T5 sequence (P14867 28-456): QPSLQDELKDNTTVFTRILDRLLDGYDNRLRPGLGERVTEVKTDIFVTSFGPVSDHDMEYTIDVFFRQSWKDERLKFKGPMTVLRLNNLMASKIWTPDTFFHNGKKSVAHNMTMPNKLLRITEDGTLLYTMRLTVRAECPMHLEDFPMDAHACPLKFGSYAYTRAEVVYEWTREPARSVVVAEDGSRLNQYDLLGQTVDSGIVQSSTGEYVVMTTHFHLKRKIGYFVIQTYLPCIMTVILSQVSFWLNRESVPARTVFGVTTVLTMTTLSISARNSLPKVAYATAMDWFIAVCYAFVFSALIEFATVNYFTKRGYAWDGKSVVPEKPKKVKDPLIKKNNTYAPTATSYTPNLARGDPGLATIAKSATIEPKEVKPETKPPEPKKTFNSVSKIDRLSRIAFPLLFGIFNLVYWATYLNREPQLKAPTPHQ
T5 sequence (P28472 26-473): as the sequence (P28472 26-473) above
T5 sequence (P18507 40-475): as the sequence (P18507 40-475) above
T1 sequence (O14764 25-452): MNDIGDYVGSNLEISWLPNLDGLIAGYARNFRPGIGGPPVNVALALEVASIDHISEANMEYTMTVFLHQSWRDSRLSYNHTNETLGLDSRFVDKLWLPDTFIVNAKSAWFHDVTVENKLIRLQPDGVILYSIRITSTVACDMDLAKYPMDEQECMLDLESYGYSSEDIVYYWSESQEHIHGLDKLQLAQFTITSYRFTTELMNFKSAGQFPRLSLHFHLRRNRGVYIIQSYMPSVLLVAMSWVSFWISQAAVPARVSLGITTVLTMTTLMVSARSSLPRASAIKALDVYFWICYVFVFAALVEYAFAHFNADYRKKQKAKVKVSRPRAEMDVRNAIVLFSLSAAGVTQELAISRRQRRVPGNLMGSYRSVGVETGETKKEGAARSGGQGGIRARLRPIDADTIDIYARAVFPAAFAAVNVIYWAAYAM

In the case of `CCCCNc1cc(C(=O)O)cc(S(N)(=O)=O)c1Oc1ccccc1` [Bumetanide, reference compound], the “Freezing vs vehicle alone” value [1] is reported as “significantly less freezing”.

With `CCCCN(CCCC)c1cc(C(=O)O)cc(S(N)(=O)=O)c1Oc1ccccc1` [NTP-2014, 3-Aminosulfonyl-5-N,N-dibutylamino-4-phenoxybenzoic acid] the “Effect on δ-containing receptors” value [2] was “unaffected”, the “Mean interval between inhibitory events, spontaneous IPSCs, with NTP-2014” value ([3]; from 257 ms (FIG. 34A) and from 535 ms (FIG. 34B)) was 205 ms and 401 ms and the “Mean interval between inhibitory events, miniature IPSCs, with NTP-2014” value ([3]; from 315 ms (FIG. 35A) and from 361 ms (FIG. 35B)) was 162 ms and 160 ms. The CNS side effects ([4]; after oral administration) was “no CNS side effects”, the Toxicological tolerability ([4]; in vivo) was “well-tolerated” and the “Effect on currents, α6 containing receptors” value ([5]; 0.1, 1, 10 μM GABA) was “inhibited by NTP-2014 at higher GABA concentrations, but unaffected at lower GABA concentrations”. The EC50 ([5]; FIG. 41C, read-out: EC50 in α6 containing GABAA receptor isoforms) was 20.2 µM, the IC50 ([5]; read-out: IC50, receptors containing the α6 subunit) was 10 to 30 µM and the “Effect on current, α3 containing isoform” value [6] was “slowed the decay rate; also recorded: inhibited”. For the same molecule, the “Effect on current, α5 containing isoform” value [7] was “slowed the decay rate; also recorded: inhibited”, the “Effect on current, α1β3γ2 GABAA receptor isoform” value [8] was “no significant activation; also recorded: amplitude of the current was not increased” and the “Effect on current, α2 containing isoform” value [9] was “slowed the decay rate; also recorded: inhibited”.

For `CCCCNc1cc(C(=O)NN2CCOCC2)cc(S(N)(=O)=O)c1Oc1ccccc1` [NTP-2024, N-Morpholinyl 3-Aminosulfonyl-5-N-butylamino-4-phenoxybenzamide], the “Concentration of NTP-2024 in rat brain” value ([10]; 15 m) was 283.783 ng/mL and 277.985 ng/mL and 226.803 ng/mL, the “Concentration of NTP-2024 in rat brain” value ([10]; 30 m) was 223.370 ng/mL and 340.460 ng/mL and 348.182 ng/mL and the “Concentration of NTP-2024 in rat brain” value ([10]; 2 h) was 124.854 ng/mL and 112.217 ng/mL and 154.415 ng/mL. The “Concentration of NTP-2024 in rat brain” value ([10]; 4 h) was 26.6338 ng/mL and 23.4893 ng/mL and 37.1694 ng/mL, the “Concentration of NTP-2024 in rat brain” value ([10]; 6 h) was 25.4146 ng/mL and 18.4619 ng/mL and 25.7880 ng/mL and the “Concentration of NTP-2000 (bumetanide) in rat brain” value ([10]; 15 m) was “BLQ (Below Limit of Quantitation (<1 ng/mL))”. For the same molecule, the “Concentration of NTP-2000 (bumetanide) in rat brain” value ([10]; 2 h) was “BLQ (Below Limit of Quantitation (<1 ng/mL))”, the “Concentration of NTP-2000 (bumetanide) in rat brain” value ([10]; 4 h) was “BLQ (Below Limit of Quantitation (<1 ng/mL))” and the “Concentration of NTP-2000 (bumetanide) in rat brain” value ([10]; 6 h) was “BLQ (Below Limit of Quantitation (<1 ng/mL))”.
